# According to patent publication US12630552B2, “Inhibitors of KRAS G12C” (BEIGENE, LTD., priority 2019, dated 2026):
# Molecular target: T1, KRAS (aa 1-169) G12C, C51S, C80L, C118S (Homo sapiens, UniProt P01116, C118S/C51S/C80L/G12C)
# T1 construct: The KRAS (aa 1-169) G12C, C51S, C80L, C118S with a His-tag; made in house
# Assay: KRAS G12C SOS1-mediated nucleotide exchange / GST-cRaf RBD binding FRET assay
# Type: biochemical
# Settings: GDP-loaded KRAS G12C pre-incubated with compound at 24° C. for 3 hrs; SOS1, GTPγS and GST-cRaf RBD added; FRET 665 nm/620 nm
# Description: Biochemical Functional Assay:
# The KRAS (aa 1-169) G12C, C51S, C80L, C118S with a His-tag was expressed, purified and loaded with GDP in house. All protein and substrate solutions were prepared in assay buffer containing 25 mM HEPES pH7.5, 10 mM MgCl2, and 0.01% Triton X-100. Purified GDP-loaded KRAS (aa 1-169) G12C, C51S, C80L, C118S protein was pre-incubated with a serially diluted compound at 24° C. for 3 hrs. Purified SOS1 (aa 564-1049) protein, GTPγS (Sigma) and GST-cRaf RBD (aa 1-149) were then added to each well and incubated at 24° C. for additional 3 hrs. […] Following the incubation, Mab Anti-6HIS-Tb cryptate (Cisbio) and Mab Anti GST-XL665 (Cisbio) were added and further incubated at 24° C. for 3 hrs. The binding interaction between active GTPγS KRAS G12C and GST-cRaf RBD brings the Tb and XL665 into close proximity enabling an increased FRET signal (Ex337 nm, Em665 nm/620 nm). The inhibition percentage of nucleotide exchange reaction in presence of increasing concentrations of compounds was calculated based on the ratio of fluorescence at 665 nm to that at 620 nm detected on a BMG PHERAstar FSX instrument. The IC50 value of each compound was calculated from fitting the data to the four-parameter logistic model by Dotmatics.
# T1 sequence (P01116 1-169 isoform P01116-2 G12C/C51S/C80L/C118S): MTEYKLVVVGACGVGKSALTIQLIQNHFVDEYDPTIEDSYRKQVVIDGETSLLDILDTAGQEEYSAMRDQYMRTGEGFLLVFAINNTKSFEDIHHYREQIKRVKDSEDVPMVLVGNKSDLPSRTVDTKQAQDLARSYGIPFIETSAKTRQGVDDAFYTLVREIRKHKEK
row,Compound,IC50
1,C=CC(=O)N1CCN(c2nc(OC[C@@H]3CCCN3C)nc3c2CN(C(=O)c2cccc4cccc(Br)c24)C3)C[C@@H]1CC#N [Example 52],8.51 nM
2,C=CC(=O)N1CCN(c2nc(OC[C@@H]3CCCN3C)nc3c2CN(Cc2cccc(C)c2Cl)C3)C[C@@H]1CC#N [Example 53],14.9 nM
3,C=CC(=O)N1CCN(c2nc(OC[C@@H]3CCCN3C)nc3c2CN(C2Cc4cccc5cc(O)cc2c45)C3)C[C@@H]1CC#N (stereo partly shown) [Example 55],< 5.1 nM
4,C=CC(=O)N1CCN(c2nc(OC[C@@H]3CCCN3C)nc3c2CN(C(=O)c2cccc4cccc(O)c24)C3)C[C@@H]1CC#N [Example 56],941 nM
